Among the data in patent US11440913B2, “Aminoimidazopyridazines as kinase inhibitors” (BRISTOL-MYERS SQUIBB COMPANY, priority 2017, dated 2022) are IC50 values, retold here.

In assay [1] the target is His-GST-TVMV-hRIPK1(1-324) (Homo sapiens (Human), UniProt Q13546). In words: RIPK1 HTRF Binding Assay. The settings on record: HTRF binding, 1 h at rt; read-out: RIPK1 (IC50). In outline:
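HTRF probe-displacement binding: 1 nM His-GST-TVMV-hRIPK1(1-324) (baculovirus construct), 90.6 nM probe, 0.2 nM anti-GST-Tb in 20 mM HEPES, 10 mM MgCl2, 0.015% Brij-35, 4 mM DTT, 0.05 mg/mL BSA. Incubated 1 h at rt; FRET 520/495 nm ratio, inhibition relative to DMSO-only wells.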
For orientation: TR-FRET usually uses a lanthanide donor and a delayed reading to cut background.

Assay [2] has as its system MLKL phosphorylation in HT29-L23 human colorectal adenocarcinoma cells. In words: MLKL Phosphorylation High-Content Assay. It is filed as cell-based. The settings on record: Homo sapiens, 6 h, necroptosis induced with TNFα, SMAC mimetic and Z-VAD, read-out: pMLKL (IC50). In outline: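 HT29-L23 cells pretreated 30 min at 37 °C with compound (6.25 to 0.106 μM final), then necroptosis induced with TNFα 35 ng/mL, SMAC mimetic 700 nM and Z-VAD 140 nM for 6 h. Fixed cells immunostained for MLKL pS358 and imaged; IC50 and Ymax from 4-parameter logistic fit.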

pIC50: −log10 of the molar value.

Chain of His-GST-TVMV-hRIPK1(1-324) (Q13546 1-324): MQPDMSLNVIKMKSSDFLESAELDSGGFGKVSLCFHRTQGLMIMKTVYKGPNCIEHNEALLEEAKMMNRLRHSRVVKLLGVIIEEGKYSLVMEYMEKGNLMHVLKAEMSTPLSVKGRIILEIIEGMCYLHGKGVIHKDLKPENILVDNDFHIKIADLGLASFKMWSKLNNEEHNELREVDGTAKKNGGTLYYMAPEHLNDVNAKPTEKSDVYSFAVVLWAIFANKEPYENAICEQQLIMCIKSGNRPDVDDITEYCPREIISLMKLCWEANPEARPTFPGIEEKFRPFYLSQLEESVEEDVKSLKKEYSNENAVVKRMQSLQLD

By pIC50 is commonly meant the negative decadic logarithm of the IC50, by convention in mol/L. In the case of `CC(=O)Nc1cn2nc(-c3ccc(C)c(C(=O)NCc4ccc(F)cc4C(=O)N4CCC(F)(F)C4)c3)ccc2n1` [Example 405, N-{[2-(3,3-difluoropyrrolidine-1-carbonyl)-4-fluorophenyl]methyl}-5-{2-acetamidoimidazo [1,2-b]pyridazin-6-yl}-2-methylbenzamide], the figures for the pIC50 in assay [1] and in assay [2] were 7.85 and 7.00, respectively.
For `CC(=O)Nc1cn2nc(-c3ccc(C)c(C(=O)NCc4cc(C(=O)N5CCC(C)(C)C5)ccc4F)c3)ccc2n1` [Example 406, N-{[5-(3,3-dimethylpyrrolidine-1-carbonyl)-2-fluorophenyl]methyl}-5-{2-acetamidoimidazo [1,2-b]pyridazin-6-yl}-2-methylbenzamide] the same measures were 6.79 and 6.34.
On to `CC(=O)Nc1cn2nc(-c3ccc(C)c(C(=O)NCc4cc(F)cc(F)c4C(=O)N4CC[C@H](O)C4)c3)ccc2n1` [Example 407, N-({3,5-difluoro-2-[(3S)-3-hydroxypyrrolidine-1-carbonyl]phenyl}methyl)-5-{2-acetamidoimidazo [1,2-b]pyridazin-6-yl}-2-methylbenzamide], for which the results for the pIC50 in assay [1] and in assay [2] were 7.43 and 6.41, respectively.
In the same order, the values of `CC(=O)Nc1cn2nc(-c3ccc(C)c(C(=O)NCc4cc(F)ccc4C(=O)N4CCCCC4)c3)ccc2n1` [Example 408, 5-{2-acetamidoimidazo [1,2-b]pyridazin-6-yl}-N-{[5-fluoro-2-(piperidine-1-carbonyl)phenyl]methyl}-2-methylbenzamide] are 8.10 and 8.10.
In the same order, the values of `CC(=O)Nc1cn2nc(-c3ccc(C)c(C(=O)NCc4cc(-c5cnn(C6CC6)c5)ccc4F)c3F)ccc2n1` [Example 409, N-{[5-(1-cyclopropyl-1H-pyrazol-4-yl)-2-fluorophenyl]methyl}-3-{2-acetamidoimidazo [1,2-b]pyridazin-6-yl}-2-fluoro-6-methylbenzamide] are 8.70 and 7.89.
For `CC(=O)Nc1cn2nc(-c3ccc(C)c(C(=O)NCc4cc(F)ccc4-c4cnn(C5CC5)c4)c3F)ccc2n1` [Example 410, N-{[2-(1-cyclopropyl-1H-pyrazol-4-yl)-5-fluorophenyl]methyl}-3-{2-acetamidoimidazo [1,2-b]pyridazin-6-yl}-2-fluoro-6-methylbenzamide] the same measures were 7.41 and 7.11.
In the case of `CC(=O)Nc1cn2nc(-c3ccc(C)c(C(=O)NCc4ccc(F)c(F)c4C(=O)N4CCC(F)(F)C4)c3F)ccc2n1` [Example 411, N-{[2-(3,3-difluoropyrrolidine-1-carbonyl)-3,4-difluorophenyl]methyl}-3-{2-acetamidoimidazo [1,2-b]pyridazin-6-yl}-2-fluoro-6-methylbenzamide], the pIC50 is 8.05 in assay [1] and 7.60 in assay [2].
For the compound `[2H]C([2H])([2H])[C@@H](NC(=O)c1c(C)ccc(-c2ccc3nc(NC(C)=O)cn3n2)c1F)c1cc(OC(F)(F)F)ccc1F` [Example 412, 3-{2-acetamidoimidazo [1,2-b]pyridazin-6-yl}-2-fluoro-N-[(1R)-1-[2-fluoro-5-(trifluoromethoxy)phenyl](2,2,2-Â^2Hâ,f)ethyl]-6-methylbenzamide], the figures for the negative-log IC50 (pIC50) in assay [1] and in assay [2] were 8.40 and 9.00, respectively.
In the same order, the values of `[2H]C([2H])([2H])[C@@H](NC(=O)c1c(C)ccc(-c2ccc3nc(NC(C)=O)cn3n2)c1F)c1cc(C(F)(F)F)ccc1F` [Example 413, 3-{2-acetamidoimidazo [1,2-b]pyridazin-6-yl}-2-fluoro-N-[(1R)-1-[2-fluoro-5-(trifluoromethyl)phenyl](2,2,2-Â^2Hâ,f)ethyl]-6-methylbenzamide] are 8.52 and 9.00.
For `COc1c(F)cc(F)cc1CNC(=O)c1c(C)ccc(-c2ccc3nc(NC(C)=O)cn3n2)c1F` [Example 414, N-[(3,5-difluoro-2-methoxyphenyl)methyl]-3-{2-acetamidoimidazo [1,2-b]pyridazin-6-yl}-2-fluoro-6-methylbenzamide] the same measures were 7.04 and 6.42.
As for `CC(=O)Nc1cn2nc(-c3cc(C(=O)NCc4cc(C(=O)N5CCCC5(C)C)ccc4F)c(C)cc3F)ccc2n1` [Example 416, N-{[5-(2,2-dimethylpyrrolidine-1-carbonyl)-2-fluorophenyl]methyl}-5-{2-acetamidoimidazo [1,2-b]pyridazin-6-yl}-4-fluoro-2-methylbenzamide], the figures for the pIC50 in assay [1] and in assay [2] were 7.89 and 7.14, respectively.
In the same order, the values of `[2H]C([2H])([2H])Oc1cc(C)c(-c2ccc3nc(NC(C)=O)cn3n2)cc1C(=O)NCc1cc(OC(F)(F)F)ccc1F` [Example 417] are 8.40 and 8.05.
For the compound `COc1cc(F)c(-c2ccc3nc(NC(C)=O)cn3n2)cc1C(=O)NCc1cc(F)ccc1C(=O)N1CCCC1(C)C` [Example 419, N-{[2-(2,2-dimethylpyrrolidine-1-carbonyl)-5-fluorophenyl]methyl}-5-{2-acetamidoimidazo [1,2-b]pyridazin-6-yl}-4-fluoro-2-methoxybenzamide], the pIC50 in assay [1] was 8.40; in assay [2], 7.55.
For `COc1cc(F)c(-c2ccc3nc(NC(C)=O)cn3n2)cc1C(=O)NCc1c(F)cccc1OC` [Example 420, 5-{2-acetamidoimidazo [1,2-b]pyridazin-6-yl}-4-fluoro-N-[(2-fluoro-6-methoxyphenyl)methyl]-2-methoxybenzamide], the pIC50 is 7.05 in assay [1] and 7.11 in assay [2].
As for `COc1cc(C)c(-c2ccc3nc(NC(C)=O)cn3n2)cc1C(=O)NCc1cc(OC(F)(F)F)ccc1F` [Example 421, 5-{2-acetamidoimidazo [1,2-b]pyridazin-6-yl}-N-{[2-fluoro-5-(trifluoromethoxy)phenyl]methyl}-2-methoxy-4-methylbenzamide], the pIC50 is 8.70 in assay [1] and 8.00 in assay [2].
Regarding `COc1cc(C)c(-c2ccc3nc(NC(=O)CO)cn3n2)cc1C(=O)NCc1cc(OC(F)(F)F)ccc1F` [Example 422, N-(2-fluoro-5-(trifluoromethoxy)benzyl)-5-(2-(2-hydroxyacetamido)imidazo[1,2-b]pyridazin-6-yl)-2-methoxy-4-methylbenzamide], the pIC50 in assay [1] is 8.22; in assay [2] it was 7.12.
In the same order, the values of `CC(=O)Nc1cn2nc(-c3cccc(C(=O)NCc4cc(OC(F)(F)F)ccc4F)c3F)ccc2n1` [Example 424, 3-{2-acetamidoimidazo [1,2-b]pyridazin-6-yl}-2-fluoro-N-{[2-fluoro-5-(trifluoromethoxy)phenyl]methyl} benzamide] are 8.70 and 8.52.
In the same order, the values of `O=C(CN1CCC(F)(F)CC1)Nc1cn2nc(-c3cccc(C(=O)NCc4cc(OC(F)(F)F)ccc4F)c3F)ccc2n1` [Example 427, 3-{2-[2-(4,4-difluoropiperidin-1-yl)acetamido]imidazo [1,2-b]pyridazin-6-yl}-2-fluoro-N-{[2-fluoro-5-(trifluoromethoxy)phenyl]methyl} benzamide] are 8.15 and 8.52.
